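Growth conditions: 96-well plates. Treatment: test compound, 48 hours, 5 concentrations. Analysis: linear interpolation between bracketing concentrations; unreached endpoints set to highest concentration. GI50 is the concentration that inhibits growth by half.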 The source made the active and inactive calls. Cut-off read from the data, not from the text of the source: active = GI50 up to about 1.1 µM and inactive = higher.
How the values were obtained:
Assay in all cases: NCI tumour cell line growth inhibition, 48 h
HOP-92 = system: HOP-92
OVCAR-5 = system: OVCAR-5
RPMI-8226 = system: RPMI-8226
UACC-257 = system: UACC-257
K562 = system: K562
OVCAR-8 = system: OVCAR-8
NCI-H23 = system: NCI-H23
UO-31 = system: UO-31
SW-620 = system: SW-620
CCRF-CEM = system: CCRF-CEM
COLO 205 = system: COLO 205
OVCAR-3 = system: OVCAR-3
U-251 = system: U-251
Malme-3M = system: Malme-3M
NCI-H460 = system: NCI-H460
TK-10 = system: TK-10
SNB-19 = system: SNB-19

Measured: GI50

CN1C(=O)CN2C(Cl)(Cl)C2(c2ccccc2F)c2cc([N+](=O)[O-])ccc21 (stereo unspecified)
inactive: HOP-92 19.3 µM | OVCAR-5 > 100 µM | RPMI-8226 40.8 µM | UACC-257 64.4 µM | K562 36.8 µM | OVCAR-8 > 100 µM | NCI-H23 76 µM | UO-31 42.7 µM | SW-620 69 µM | CCRF-CEM 29 µM | COLO 205 52.1 µM | OVCAR-3 > 100 µM | U-251 57.1 µM | Malme-3M 18.4 µM | NCI-H460 33.2 µM | TK-10 60.7 µM

CC1(O)C=CC2CCC1C2O (stereo unspecified)
inactive: OVCAR-5 > 100 µM | RPMI-8226 28.2 µM | UACC-257 > 100 µM | K562 > 100 µM | OVCAR-8 > 100 µM | NCI-H23 > 100 µM | UO-31 > 100 µM | CCRF-CEM > 100 µM | COLO 205 30.3 µM | OVCAR-3 > 100 µM | U-251 > 100 µM | Malme-3M > 100 µM | NCI-H460 46.5 µM | TK-10 > 100 µM | SNB-19 > 100 µM

O=[N+]([O-])c1ccc(C2SCc3nc4ccccc4n32)cc1 (stereo unspecified)
inactive: HOP-92 23.1 µM | OVCAR-5 17.6 µM | UACC-257 42.4 µM | K562 33.4 µM | OVCAR-8 > 100 µM | NCI-H23 26.7 µM | UO-31 24.8 µM | SW-620 > 100 µM | CCRF-CEM 65.9 µM | COLO 205 > 100 µM | U-251 93.8 µM | Malme-3M 40.1 µM | NCI-H460 > 100 µM | TK-10 43.4 µM | SNB-19 > 100 µM

COc1ccc(OC)c2c1CC(C(=O)O)(C(=O)O)CC2=O
inactive: HOP-92 > 100 µM | OVCAR-5 > 100 µM | K562 > 100 µM | NCI-H23 > 100 µM | UO-31 > 100 µM | SW-620 > 100 µM | OVCAR-3 > 100 µM | U-251 > 100 µM | Malme-3M > 100 µM | TK-10 > 100 µM | SNB-19 > 100 µM

CC(C)N(C(=O)C12C3C4C1C1C4(C#N)C3C12C#N)C(C)C (stereo unspecified)
inactive: HOP-92 > 100 µM | OVCAR-5 > 100 µM | RPMI-8226 > 100 µM | UACC-257 > 100 µM | K562 > 100 µM | OVCAR-8 > 100 µM | NCI-H23 > 100 µM | UO-31 > 100 µM | SW-620 > 100 µM | CCRF-CEM > 100 µM | COLO 205 > 100 µM | OVCAR-3 > 100 µM | U-251 > 100 µM | Malme-3M > 100 µM | NCI-H460 > 100 µM | TK-10 > 100 µM | SNB-19 > 100 µM

CC(=O)N/C(=C\c1ccccc1/C=C(\NC(C)=O)c1nc2cc(C)c(C)cc2[nH]1)c1nc2cc(C)c(C)cc2[nH]1
inactive: HOP-92 8.36 µM | OVCAR-5 36.8 µM | RPMI-8226 2.04 µM | K562 28.6 µM | OVCAR-8 19.2 µM | NCI-H23 8.17 µM | UO-31 3.22 µM | SW-620 31.1 µM | CCRF-CEM 26.7 µM | COLO 205 19.5 µM | OVCAR-3 3.73 µM | U-251 6.59 µM | Malme-3M 21.7 µM | NCI-H460 26.8 µM | TK-10 24.4 µM | SNB-19 6.81 µM

C=CCC12CC(=O)CCC1CC(=O)C2 (stereo unspecified)
inactive: RPMI-8226 > 100 µM | UACC-257 > 100 µM | K562 > 100 µM | OVCAR-8 > 100 µM | UO-31 > 100 µM | SW-620 > 100 µM | CCRF-CEM > 100 µM | COLO 205 > 100 µM | OVCAR-3 > 100 µM | U-251 > 100 µM | Malme-3M > 100 µM | NCI-H460 > 100 µM | TK-10 > 100 µM | SNB-19 > 100 µM

CC(/C=C/c1ncccc1OCCCCCC(=O)O)=N\NC1=NCCN1
inactive: HOP-92 > 100 µM | OVCAR-5 > 100 µM | RPMI-8226 > 100 µM | K562 > 100 µM | OVCAR-8 > 100 µM | UO-31 > 100 µM | SW-620 > 100 µM | CCRF-CEM > 100 µM | COLO 205 > 100 µM | OVCAR-3 > 100 µM | Malme-3M > 100 µM | NCI-H460 > 100 µM | TK-10 65.3 µM | SNB-19 > 100 µM

COc1ccc(C(=O)C(C(=O)CCC(=O)Nc2cccc(C(F)(F)F)c2)c2ccccc2)cc1 (stereo unspecified)
inactive: HOP-92 53.6 µM | OVCAR-5 > 100 µM | RPMI-8226 55.2 µM | UACC-257 62.7 µM | K562 54 µM | OVCAR-8 > 100 µM | NCI-H23 44.8 µM | UO-31 55.1 µM | SW-620 > 100 µM | CCRF-CEM 46.8 µM | COLO 205 > 100 µM | OVCAR-3 80 µM | U-251 > 100 µM | Malme-3M > 100 µM | NCI-H460 > 100 µM | TK-10 > 100 µM | SNB-19 > 100 µM

C[C@H](NC(=O)OC1C2C=CC(O)C1CC2)c1ccccc1 (stereo partly specified)
inactive: OVCAR-5 > 100 µM | RPMI-8226 22.4 µM | UACC-257 > 100 µM | K562 > 100 µM | OVCAR-8 > 100 µM | NCI-H23 > 100 µM | UO-31 > 100 µM | CCRF-CEM 81.1 µM | COLO 205 40.9 µM | OVCAR-3 > 100 µM | U-251 > 100 µM | Malme-3M > 100 µM | NCI-H460 80 µM | TK-10 > 100 µM | SNB-19 > 100 µM

Cc1ccc(C2C(Cl)C(=O)N2n2cnc3ccccc3c2=O)cc1 (stereo unspecified)
inactive: OVCAR-5 > 100 µM | RPMI-8226 37.3 µM | UACC-257 42 µM | K562 52.2 µM | OVCAR-8 > 100 µM | NCI-H23 > 100 µM | UO-31 23.4 µM | SW-620 > 100 µM | CCRF-CEM > 100 µM | COLO 205 > 100 µM | OVCAR-3 81.1 µM | U-251 > 100 µM | Malme-3M > 100 µM | NCI-H460 > 100 µM | TK-10 > 100 µM | SNB-19 44 µM

O=C(c1ccccc1)c1ccc2cccc(OC3OC(CO)C(O)C(O)C3O)c2n1 (stereo unspecified)
inactive: OVCAR-5 > 100 µM | RPMI-8226 > 100 µM | UACC-257 54.7 µM | K562 > 100 µM | OVCAR-8 73.6 µM | NCI-H23 > 100 µM | UO-31 > 100 µM | SW-620 > 100 µM | COLO 205 > 100 µM | OVCAR-3 45.2 µM | U-251 > 100 µM | Malme-3M > 100 µM | NCI-H460 74.6 µM | TK-10 > 100 µM | SNB-19 > 100 µM

COc1ccc(C2S/C(=C\c3ccc(O)cc3)C(=O)N2NC(=O)Cc2ccccc2)cc1 (stereo unspecified)
inactive: HOP-92 > 100 µM | OVCAR-5 > 100 µM | RPMI-8226 > 100 µM | UACC-257 > 100 µM | K562 > 100 µM | OVCAR-8 > 100 µM | NCI-H23 > 100 µM | UO-31 > 100 µM | SW-620 > 100 µM | CCRF-CEM > 100 µM | COLO 205 > 100 µM | U-251 > 100 µM | Malme-3M > 100 µM | NCI-H460 > 100 µM | TK-10 > 100 µM

CCNC1=Nc2ccccc2-n2c(nn3nc4ccccc4c23)N1CC
inactive: HOP-92 > 100 µM | OVCAR-5 > 100 µM | RPMI-8226 97.1 µM | UACC-257 > 100 µM | K562 66.7 µM | OVCAR-8 > 100 µM | NCI-H23 > 100 µM | SW-620 > 100 µM | CCRF-CEM 80 µM | COLO 205 > 100 µM | U-251 > 100 µM | NCI-H460 > 100 µM | SNB-19 > 100 µM

CC1OC(OCC2OC(Oc3c(-c4ccc(O)cc4)oc4cc(O)cc(O)c4c3=O)C(OC3OC(C)C(O)C(O)C3O)C(O)C2O)C(O)C(O)C1O (stereo unspecified)
inactive: HOP-92 > 100 µM | OVCAR-5 > 100 µM | RPMI-8226 > 56.8 µM | UACC-257 > 100 µM | K562 > 31.6 µM | OVCAR-8 > 100 µM | NCI-H23 > 100 µM | UO-31 > 100 µM | SW-620 > 36.2 µM | CCRF-CEM > 51.5 µM | COLO 205 > 46 µM | OVCAR-3 > 100 µM | U-251 > 100 µM | Malme-3M > 100 µM | NCI-H460 > 68.9 µM | TK-10 > 100 µM | SNB-19 > 100 µM

C[C@@H]1CC2(C[C@@H](C)C3[C@@H](CC4(C)CCCC5C6=CC(O)(CC[C@]34C)OC6=CC(=O)OC5(C)C)O2)OC1=O (stereo partly specified)
inactive: HOP-92 > 100 µM | OVCAR-5 > 100 µM | RPMI-8226 > 100 µM | K562 84.3 µM | NCI-H23 > 100 µM | UO-31 > 100 µM | SW-620 > 100 µM | COLO 205 > 100 µM | OVCAR-3 > 100 µM | U-251 > 100 µM | Malme-3M > 100 µM | TK-10 > 100 µM | SNB-19 > 100 µM

COc1cc(C2c3cc4c(cc3[C@@H](Nc3ccc(C(=O)O)cc3)C3COC(=O)[C@H]23)OCO4)cc(OC)c1O (stereo partly specified)
inactive: HOP-92 2.46 µM | UACC-257 27.2 µM | OVCAR-8 14.6 µM | NCI-H23 10.6 µM | UO-31 22.5 µM | CCRF-CEM 2.78 µM | OVCAR-3 20 µM | Malme-3M 13.7 µM | NCI-H460 2.39 µM | TK-10 27.8 µM | SNB-19 6.14 µM

COC[C@@H]1Cc2cc(OC)c3c(c2[C@H](c2ccc(OC)c(OC)c2)[C@H]1COC)OCO3 [HYPOPHYLLANTHIN]
inactive: HOP-92 70 µM | OVCAR-5 > 100 µM | UACC-257 > 100 µM | K562 > 10 µM | OVCAR-8 > 100 µM | NCI-H23 > 100 µM | UO-31 70.1 µM | SW-620 > 100 µM | CCRF-CEM > 100 µM | COLO 205 > 100 µM | OVCAR-3 > 100 µM | U-251 > 100 µM | Malme-3M 78.9 µM | NCI-H460 > 100 µM | TK-10 > 100 µM | SNB-19 > 100 µM

— ChEMBL document CHEMBL1201862, “PubChem BioAssay data set” (2004)
